Test [1] concerns ERK1/2 phosphorylation in Raw264.7 cells expressing mPTPB. Nature of the test: ERK phosphorylation in macrophage cells expressing mPTPB (western blot). It counts as cell-based, mouse. The conditions noted are these: IFN-γ, L01Z08 especially at 120 and 240 nM. Here is the method:
As explained above, ERK phosphorylation is important in the cellular secretion pathway of IL-6. However, mPTPB blocks or inhibits the phosphorylation of ERK which reduces and potentially prevents IL-6 secretion altogether.
Raw264.7 mouse macrophages were cultured in Dulbecco's modified Eagle's medium (DMEM) supplemented with 10% FBS (Invitrogen), penicillin (50 units/mL), and streptomycin (50 μg/mL) under a humidified atmosphere containing 5% CO2 at 37° C. Transfected Raw264.7 cells (Vector, WT-mPTPB) were seeded in a 12-well plate at a density of 4×10^4 cells/well. The following day cells were treated with mPTPB inhibitor 213a for 1 hr, then stimulated with IFN-γ (200 U/ml) for 1 h. […]. Wash with ice-cold phosphate buffered saline, and lysed with lysis buffer on ice for 30 min. Cell lysate is then cleared by centrifuging at 13,000 rpm for 15 min. The phosphorylation of ERK1/2 and Akt was detected by western blotting.

In test [2] the test system is Akt phosphorylation in Raw264.7 cells expressing mPTPB. It counts as cell-based, mouse. As to conditions: macrophage cells expressing mPTPB, increasing concentrations.
In the next test the target is mPTPA (Mycobacterium tuberculosis, UniProt P9WIA1). The experiment in a line: PTP selectivity panel: mPTPA. Format: biochemical.
Another test deals with T1, mPTPB (Mycobacterium tuberculosis, UniProt I6WXK4).
T1 construct: The full-length mPTPB with a N-terminal His6-tag was expressed and purified; His6 (N); made in house; host or cells: E. coli BL21/DE3 (pET28b-mPTPB)
T1 sequence (I6WXK4 1-276): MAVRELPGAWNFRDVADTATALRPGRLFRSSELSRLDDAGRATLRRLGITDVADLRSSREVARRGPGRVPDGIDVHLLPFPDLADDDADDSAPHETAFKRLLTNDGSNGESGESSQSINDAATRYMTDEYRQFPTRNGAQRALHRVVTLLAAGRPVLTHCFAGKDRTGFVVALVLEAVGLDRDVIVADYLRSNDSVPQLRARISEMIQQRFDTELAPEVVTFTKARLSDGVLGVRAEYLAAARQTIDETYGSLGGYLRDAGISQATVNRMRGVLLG
Nature of the test: biochemical. It counts as biochemical.

“Also recorded” adds a separate entry of the source.

Chain of mPTPA (P9WIA1 whole entry): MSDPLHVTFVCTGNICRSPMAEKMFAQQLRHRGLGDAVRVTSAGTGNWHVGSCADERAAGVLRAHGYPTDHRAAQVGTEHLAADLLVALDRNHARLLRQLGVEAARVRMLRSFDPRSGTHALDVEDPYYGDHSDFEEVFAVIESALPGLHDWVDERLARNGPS

Take `Cn1c(-c2ccccc2C(F)(F)F)c(C(=O)CCNC(=O)c2cc(Br)cc(Br)c2)c2cc(C(=O)O)c(O)cc21` [Compound 213a, 3-(3-(3,5-dibromobenzamido)propanoyl)-6-hydroxy-1-methyl-2-(2-(trifluoromethyl)phenyl)-1H-indole-5-carboxylic acid]: the “ERK phosphorylation / ERK1/2 activity” value in test [1] is listed as “restore ERK1/2 activity; also recorded: increased the ERK activity”. Further, in test [2], the “AKT phosphorylation / Akt activation” value is on record as “blocks Akt activation; also recorded: decreased the Akt activity”. For the same compound, the midpoint of inhibition at mPTPA, the IC50, lay at 10900 ± 500 nM. At mPTPB, the “more potent than parent compound 207a” value worked out at 14 fold and the “more selective than parent compound 207a” value was 43 fold. Further, the “In % @ 1 μM (mPTPB)” value at mPTPB (1 μM, library 13 screened in situ) was determined as 81%. Moreover, on mPTPB (kinetic analyses, Lineweaver-Burk plot), the “mode of mPTPB inhibition” value is “Non-competitive inhibitor; also recorded: reversible and noncompetitive inhibitor”. The compound also had a Ki on mPTPB (pH 7.0, 25° C.) of 50 ± 2 nM. The IC50 on mPTPB (pNPP substrate, pH 7.0, 25° C., read-out: IC50 (μM) against mPTPB) stood at 0.079 ± 0.01 µM. Moreover, on mPTPB (panel of 11 PTPs), the “selectivity for mPTPB over the other ten PTPs” value is reported as “over 90 fold”.

The values are drawn from US9493436B2, “Tyrosine phosphatase inhibitors and uses thereof to modulate the activity of enzymes involved in the pathology of Mycobacterium tuberculosis” (priority 2011, dated 2016).
